Results from ChEMBL document CHEMBL1133893, “Design and synthesis of a highly selective EP4-receptor agonist. Part 1: 3,7-dithiaPG derivatives with high selectivity” (Bioorg Med Chem Lett, 2001).
pEC50, pKi: −log10 of the molar value.

Columns and labels:
[1] = biological target: T1, Prostaglandin E2 receptor EP4 subtype (Mus musculus, UniProt P32240); experiment: Effective concentration which increases intracellular c-AMP production in mouse Prostanoid EP4 receptor; type: functional, cell-based
T1 sequence (P32240 whole entry): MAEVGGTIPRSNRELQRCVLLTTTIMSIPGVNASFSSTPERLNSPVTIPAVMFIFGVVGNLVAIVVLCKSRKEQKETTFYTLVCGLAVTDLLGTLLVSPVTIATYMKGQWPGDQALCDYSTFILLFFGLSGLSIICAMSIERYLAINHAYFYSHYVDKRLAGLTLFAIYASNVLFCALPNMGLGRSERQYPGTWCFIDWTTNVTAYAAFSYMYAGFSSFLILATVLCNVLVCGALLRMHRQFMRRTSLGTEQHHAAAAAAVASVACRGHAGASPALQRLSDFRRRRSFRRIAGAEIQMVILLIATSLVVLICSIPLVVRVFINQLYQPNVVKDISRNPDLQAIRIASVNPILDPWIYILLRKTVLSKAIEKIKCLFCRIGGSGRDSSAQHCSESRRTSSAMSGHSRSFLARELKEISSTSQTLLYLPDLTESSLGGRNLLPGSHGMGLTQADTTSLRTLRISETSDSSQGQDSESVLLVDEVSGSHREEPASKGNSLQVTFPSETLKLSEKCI

[2] = biological target: T1, Prostaglandin E2 receptor EP4 subtype; experiment: Evaluated for its competitive binding affinity towards mouse Prostanoid EP4 receptor in CHO cells expressing prostanoid receptor; type: cell-based
[3] = biological target: Prostaglandin E2 receptor EP2 subtype (Mus musculus, UniProt Q62053); experiment: Evaluated for its competitive binding affinity towards mouse Prostanoid EP2 receptor in CHO cells expressing prostanoid receptor; type: cell-based
Sequence of Prostaglandin E2 receptor EP2 subtype (Q62053 whole entry): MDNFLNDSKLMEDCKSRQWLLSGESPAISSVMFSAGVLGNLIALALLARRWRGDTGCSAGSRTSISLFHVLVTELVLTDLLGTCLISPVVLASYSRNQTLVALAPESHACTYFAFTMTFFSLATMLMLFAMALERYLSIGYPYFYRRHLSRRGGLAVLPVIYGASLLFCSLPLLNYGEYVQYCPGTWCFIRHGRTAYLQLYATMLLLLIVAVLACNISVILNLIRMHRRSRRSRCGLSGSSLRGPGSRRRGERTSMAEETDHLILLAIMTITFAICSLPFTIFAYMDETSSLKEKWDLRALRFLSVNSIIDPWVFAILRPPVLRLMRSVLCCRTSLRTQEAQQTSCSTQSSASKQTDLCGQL

[4] = biological target: T2, Prostaglandin E2 receptor EP3 subtype (Mus musculus, UniProt P30557); experiment: Evaluated for its competitive binding affinity towards mouse Prostanoid EP3 receptor in CHO cells expressing prostanoid receptor; type: cell-based
T2 sequence (P30557 whole entry): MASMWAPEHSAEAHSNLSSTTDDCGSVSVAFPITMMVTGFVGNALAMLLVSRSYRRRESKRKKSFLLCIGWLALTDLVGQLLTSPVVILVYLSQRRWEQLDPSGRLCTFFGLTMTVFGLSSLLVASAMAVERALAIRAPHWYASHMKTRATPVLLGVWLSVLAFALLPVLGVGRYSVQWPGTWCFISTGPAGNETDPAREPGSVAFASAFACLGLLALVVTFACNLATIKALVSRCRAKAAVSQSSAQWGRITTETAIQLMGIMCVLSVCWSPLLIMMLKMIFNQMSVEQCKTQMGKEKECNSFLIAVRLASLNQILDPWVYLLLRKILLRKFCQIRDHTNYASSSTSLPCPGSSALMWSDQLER

[5] = biological target: T3, Prostaglandin E2 receptor EP1 subtype (Mus musculus, UniProt P35375); experiment: Evaluated for its competitive binding affinity towards mouse Prostanoid EP1 receptor in CHO cells expressing prostanoid receptor; type: cell-based
T3 sequence (P35375 whole entry): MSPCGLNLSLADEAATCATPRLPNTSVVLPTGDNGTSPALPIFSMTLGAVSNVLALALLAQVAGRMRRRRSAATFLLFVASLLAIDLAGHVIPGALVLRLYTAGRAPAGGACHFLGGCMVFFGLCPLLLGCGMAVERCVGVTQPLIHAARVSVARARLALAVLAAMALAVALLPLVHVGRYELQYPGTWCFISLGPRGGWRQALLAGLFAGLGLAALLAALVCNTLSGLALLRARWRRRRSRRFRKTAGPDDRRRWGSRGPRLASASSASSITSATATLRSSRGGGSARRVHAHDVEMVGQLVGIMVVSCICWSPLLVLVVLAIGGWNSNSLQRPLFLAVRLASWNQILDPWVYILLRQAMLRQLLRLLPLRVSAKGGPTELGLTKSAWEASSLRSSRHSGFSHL

[6] = biological target: Prostacyclin receptor (Homo sapiens, UniProt P43119); experiment: Evaluated for its competitive binding affinity towards human Prostanoid IP receptor in CHO cells; type: cell-based
Sequence of Prostacyclin receptor (P43119 whole entry): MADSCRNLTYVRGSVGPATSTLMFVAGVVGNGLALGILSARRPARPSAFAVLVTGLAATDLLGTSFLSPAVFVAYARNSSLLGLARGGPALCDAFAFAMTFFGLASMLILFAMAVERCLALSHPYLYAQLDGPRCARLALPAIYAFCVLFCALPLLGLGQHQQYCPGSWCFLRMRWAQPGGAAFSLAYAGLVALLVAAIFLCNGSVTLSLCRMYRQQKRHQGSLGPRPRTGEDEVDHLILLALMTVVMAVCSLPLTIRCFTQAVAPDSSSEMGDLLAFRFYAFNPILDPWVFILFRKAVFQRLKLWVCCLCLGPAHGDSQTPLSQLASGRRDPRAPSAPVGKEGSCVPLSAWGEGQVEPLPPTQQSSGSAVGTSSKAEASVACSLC

[7] = Selectivity ratio (Prostanoid EP3 receptor/Prostanoid EP4 receptor) was determined

SMILES | pEC50 [1] | pKi [2] | pKi [3] | pKi [4] | pKi [5] | pKi [6] | Selectivity ratio [7]
CCCOCc1cccc(C[C@H](O)/C=C/[C@H]2[C@H](O)CC(=O)[C@@H]2SCCCSCC(=O)O)c1 | 8.00 | 8.28 | 5.11 | 5.52 | < 5.00 | < 5.00 | –
CCCCC[C@H](O)/C=C/[C@H]1[C@H](O)CC(=O)[C@@H]1CSCCSCC(=O)O | 5.11 | 7.55 | 6.00 | 8.46 | 7.30 | < 5.00 | –
CCOCc1cccc(C[C@H](O)/C=C/[C@H]2[C@H](O)CC(=O)[C@@H]2SCCCSCC(=O)O)c1 | 8.60 | 8.03 | < 5.00 | 5.35 | < 5.00 | < 5.00 | 450
CCCCC[C@H](O)/C=C/[C@H]1[C@H](O)CC(=O)[C@@H]1SCCCCCC(=O)O | 8.43 | 9.15 | 7.00 | 8.35 | 6.92 | 6.06 | –
CCCCC[C@H](O)/C=C/[C@H]1[C@H](O)CC(=O)[C@@H]1SCCCSCC(=O)O | 8.37 | 9.15 | 6.55 | 6.66 | 6.21 | < 5.00 | –
Cc1ccc(C[C@H](O)/C=C/[C@H]2[C@H](O)CC(=O)[C@@H]2SCCCSCC(=O)O)cc1 | 6.57 | 8.14 | 5.92 | 7.14 | < 5.00 | < 5.00 | –
COCCCc1cccc(C[C@H](O)/C=C/[C@H]2[C@H](O)CC(=O)[C@@H]2SCCCSCC(=O)O)c1 | 7.36 | 7.00 | < 5.00 | < 5.00 | < 5.00 | < 5.00 | –
COc1cccc(C[C@H](O)/C=C/[C@H]2[C@H](O)CC(=O)[C@@H]2SCCCSCC(=O)O)c1 | 7.43 | 8.00 | < 5.00 | 6.29 | < 5.00 | < 5.00 | 50
CCCCC[C@H](O)/C=C/[C@H]1[C@H](O)CC(=O)[C@@H]1SCCCOCC(=O)O | 8.11 | 8.64 | 6.82 | 7.96 | 5.92 | 6.29 | –
COc1ccc(C[C@H](O)/C=C/[C@H]2[C@H](O)CC(=O)[C@@H]2SCCCSCC(=O)O)cc1 | 7.49 | 8.15 | 5.82 | 6.66 | 5.51 | < 5.00 | 50
COCCc1cccc(C[C@H](O)/C=C/[C@H]2[C@H](O)CC(=O)[C@@H]2SCCCSCC(=O)O)c1 | 7.92 | 8.07 | 5.51 | 5.52 | < 5.00 | < 5.00 | –
COc1ccccc1C[C@H](O)/C=C/[C@H]1[C@H](O)CC(=O)[C@@H]1SCCCSCC(=O)O | 6.24 | 7.49 | 5.59 | 5.96 | < 5.00 | < 5.00 | 50
Cc1ccccc1C[C@H](O)/C=C/[C@H]1[C@H](O)CC(=O)[C@@H]1SCCCSCC(=O)O | 6.38 | 7.66 | 5.60 | 6.85 | < 5.00 | < 5.00 | –

Further compounds by rising pKi [3], results first:

pEC50 [1] | pKi [2] | pKi [3] | pKi [4] | pKi [5] | pKi [6] | Selectivity ratio [7] | SMILES
8.32 | 8.22 | 5.28 | 6.37 | < 5.00 | < 5.00 | 70 | CSCc1cccc(C[C@H](O)/C=C/[C@H]2[C@H](O)CC(=O)[C@@H]2SCCCSCC(=O)O)c1
7.47 | 8.15 | 5.41 | 6.89 | 5.59 | < 5.00 | – | O=C(O)CSCCCS[C@H]1C(=O)C[C@@H](O)[C@@H]1/C=C/[C@@H](O)Cc1ccccc1
8.51 | 8.51 | 5.68 | 5.92 | < 5.00 | < 5.00 | 120 | COCc1cccc(C[C@H](O)/C=C/[C@H]2[C@H](O)CC(=O)[C@@H]2SCCCSCC(=O)O)c1
6.77 | 8.49 | 5.92 | 8.36 | 6.21 | < 5.00 | – | CCCCC[C@H](O)/C=C/[C@H]1[C@H](O)CC(=O)[C@@H]1SCCSCCC(=O)O
8.55 | 8.72 | 6.12 | 7.00 | < 5.00 | < 5.00 | – | Cc1cccc(C[C@H](O)/C=C/[C@H]2[C@H](O)CC(=O)[C@@H]2SCCCSCC(=O)O)c1
8.60 | – | 7.39 | – | 7.66 | – | – | CCCCC[C@H](O)/C=C/[C@H]1[C@H](O)CC(=O)[C@@H]1CCCCCCC(=O)O [ALPROSTADIL]
– | 9.40 | 7.85 | 8.21 | 7.96 | 8.48 | – | CCCC[C@H](C)C[C@H](O)/C=C/[C@H]1[C@H](O)CC(=O)[C@@H]1SCCCCCC(=O)O
